Data: ChEMBL document CHEMBL1201862, “PubChem BioAssay data set” (2004)
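Results reflect a 48-hour exposure of cells in 96-well plates to compound at five concentrations. GI50: concentration for 50% inhibition of growth.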 Activity calls are given as the source filed them. No stated cut-off is given here; in the data, active = GI50 up to about 1.1 µM and inactive = higher.

Experiments:
Test in all cases: NCI anticancer screen, dose series, 48 h
U-251 = system: U-251
NCI-H522 = system: NCI-H522
SK-MEL-2 = system: SK-MEL-2
SF-268 = system: SF-268
COLO 205 = system: COLO 205
DU-145 = system: DU-145
CAKI-1 = system: CAKI-1
SW-620 = system: SW-620
OVCAR-4 = system: OVCAR-4
OVCAR-8 = system: OVCAR-8
PC-3 = system: PC-3
Malme-3M = system: Malme-3M
HOP-92 = system: HOP-92
RXF 393 = system: RXF 393
SK-MEL-5 = system: SK-MEL-5
M14 = system: M14
ACHN = system: ACHN
MOLT-4 = system: MOLT-4
LOX IMVI = system: LOX IMVI
UACC-62 = system: UACC-62

Row | Structure (SMILES) | GI50 (U-251) | GI50 (NCI-H522) | GI50 (SK-MEL-2) | GI50 (SF-268) | GI50 (COLO 205) | GI50 (DU-145) | GI50 (CAKI-1) | GI50 (SW-620) | GI50 (OVCAR-4) | GI50 (OVCAR-8) | GI50 (PC-3) | GI50 (Malme-3M) | GI50 (HOP-92) | GI50 (RXF 393) | GI50 (SK-MEL-5) | GI50 (M14) | GI50 (ACHN) | GI50 (MOLT-4) | GI50 (LOX IMVI) | GI50 (UACC-62)
1 | CC(=O)OC12c3ccccc3-c3ccccc3C1C1C(=O)N(C)C(=O)C12Cl (stereo unspecified) | > 10 µM (inactive) | > 10 µM (inactive) | > 10 µM (inactive) | > 10 µM (inactive) | > 10 µM (inactive) | > 10 µM (inactive) | > 10 µM (inactive) | > 10 µM (inactive) | > 10 µM (inactive) | > 10 µM (inactive) | > 10 µM (inactive) | > 10 µM (inactive) | > 10 µM (inactive) | > 10 µM (inactive) | > 10 µM (inactive) | > 10 µM (inactive) | > 10 µM (inactive) | > 10 µM (inactive) | > 10 µM (inactive) | 
2 | COc1ccccc1-c1cc(=O)c2ccccc2n1C1CC1 | 3.54 µM (inactive) | 0.865 µM (active) | 2.69 µM (inactive) | 5.01 µM (inactive) | 1.57 µM (inactive) | 3.5 µM (inactive) | 3.49 µM (inactive) | 3.13 µM (inactive) |  | 3.79 µM (inactive) | 4.15 µM (inactive) |  | 1.78 µM (inactive) | 1.84 µM (inactive) | 4.52 µM (inactive) | 4.4 µM (inactive) | 2.2 µM (inactive) | 19.4 µM (inactive) | 3.89 µM (inactive) | 2.77 µM (inactive)
3 | N#CCCC(C=O)(CCC#N)CCC#N | > 100 µM (inactive) | > 100 µM (inactive) | > 100 µM (inactive) | > 100 µM (inactive) | > 100 µM (inactive) | > 100 µM (inactive) | > 100 µM (inactive) | > 100 µM (inactive) | > 100 µM (inactive) | > 100 µM (inactive) | > 100 µM (inactive) | > 100 µM (inactive) | > 100 µM (inactive) | > 100 µM (inactive) | > 100 µM (inactive) | > 100 µM (inactive) | > 100 µM (inactive) |  | > 100 µM (inactive) | > 100 µM (inactive)
4 | COc1c(O)cc2oc(-c3ccc(O)cc3)cc(=O)c2c1O [HISPIDULIN] | 42.7 µM (inactive) | 36.2 µM (inactive) | 27.2 µM (inactive) | 46.6 µM (inactive) | 90.4 µM (inactive) | 30.5 µM (inactive) |  | 34.1 µM (inactive) | 35.8 µM (inactive) |  | 34.2 µM (inactive) | 74.8 µM (inactive) | 2.91 µM (inactive) | 51.5 µM (inactive) | 15.5 µM (inactive) | 38.6 µM (inactive) | 26.8 µM (inactive) | 25.4 µM (inactive) | 39.2 µM (inactive) | 19 µM (inactive)
5 | CCCCCCOc1ccc(C(=O)NOC)cc1 | > 100 µM (inactive) | > 100 µM (inactive) | > 100 µM (inactive) | > 100 µM (inactive) | > 100 µM (inactive) | > 100 µM (inactive) | 96.8 µM (inactive) | > 100 µM (inactive) | > 100 µM (inactive) | > 100 µM (inactive) | 60.1 µM (inactive) |  | > 100 µM (inactive) | > 100 µM (inactive) | > 100 µM (inactive) | > 100 µM (inactive) | > 100 µM (inactive) | 24.8 µM (inactive) | > 100 µM (inactive) | > 100 µM (inactive)
6 | O=S(=O)(c1ccccc1)[C@@H]1[C@H]2C=C[C@](CS)(O2)[C@H]1S(=O)(=O)c1ccccc1 | > 100 µM (inactive) | 14.7 µM (inactive) |  | > 100 µM (inactive) | 79.3 µM (inactive) | > 100 µM (inactive) | 31.6 µM (inactive) | 12.4 µM (inactive) | 42.1 µM (inactive) | 50.1 µM (inactive) | 35.6 µM (inactive) | > 100 µM (inactive) | > 100 µM (inactive) | 43.6 µM (inactive) | > 100 µM (inactive) | > 100 µM (inactive) | 76.9 µM (inactive) | 16.5 µM (inactive) | 44.6 µM (inactive) | > 100 µM (inactive)
7 | [N-]=[N+]=C1C(=O)c2ccccc2-c2ccccc21 | 31.3 µM (inactive) | 24.4 µM (inactive) | 29.4 µM (inactive) | 33.3 µM (inactive) | 32.1 µM (inactive) | 30.9 µM (inactive) | 37.4 µM (inactive) | 37.4 µM (inactive) | 35.8 µM (inactive) | 30.6 µM (inactive) | 25.8 µM (inactive) |  | 33.3 µM (inactive) | 15.6 µM (inactive) | 15.7 µM (inactive) | 44.6 µM (inactive) | 38.6 µM (inactive) | 24.9 µM (inactive) | 25.9 µM (inactive) | 22.3 µM (inactive)
